{"source": "patent US20090088411A1", "about": "“No-donating corticosteroid with improved pharmacokinetic, anti-inflammatory and vasodilatory properties” (Topigen Pharmaceuticals Inc., priority 2007, published 2009)", "key": {"blood eosinophils": {"test_system": "blood eosinophils", "experiment": "Blood eosinophils", "type": "in vivo, humans", "conditions": "mean (SD)", "experimental": "(§1) Those subjects who completed the 14-day run-in period were assigned to receive either an inhaled version of a compound of the present invention (in this case, budesonide 21-(4′-nitrooxymethyl)benzoate, designated hereafter as “TPI-1020”) or budesonide over a 21-day period. The doses administered were based on equimolar amounts of budesonide and were as follows: budesonide 400 μg bid for 14 days then 800 μg bid for 7 days; TPI-1020: 600 μg bid for 14 days then 1200 μg bid for 7 days. Study treatments were delivered in lactose-based blends using the capsule-based Aeroliser dry powder inhaler. Budesonide capsules (Miflonide®, Novartis Pharmaceuticals) delivered 383 μg as compared to 423 μg of budesonide for TPI-1020 (equivalent to 9.5% more budesonide delivered to the body in the TPI-1020 group). However, the fine particle dose of budesonide was 104 μg for the budesonide capsules and only 78 μg for the TPI-1020 capsules (equivalent to 25% less budesonide delivered to the lung in the TPI-1020 group). No other asthma medication except rescue salbutamol was permitted during the study."}, "sputum eosinophils": {"test_system": "sputum eosinophils", "experiment": "Sputum differential cell count: eosinophils", "type": "in vivo, humans", "conditions": "mean (SD)", "experimental": "(§2) Although this study was only powered for neutrophils, the following parameters were also evaluated: sputum total cell and differential cell counts, using known methods, on days 0, 15 and day 22; pre-dose FEV1 measurements on days 0, 1, 14, 15 and 22; peak flow measurements throughout the study (miniwright meter); use of daily rescue medication (salbutamol) throughout the study; the response to methacholine challenge test; and the eNO levels (chemiluminescence after reaction with ozone) on days 0, 15 and 22 and plasma CRP levels on days 0, 15 and 22.\nas §1"}, "neutrophils": {"test_system": "neutrophils", "experiment": "Guinea pig model of LPS induced lung inflammation", "type": "in vivo"}, "FEV1 spirometry": {"experiment": "FEV1 spirometry", "type": "in vivo, humans", "conditions": "for FEV1 (ITT, L) / FEV1 (PD, L): mean (SD)", "experimental": "as §2, §1"}, "[1]": {"experiment": "Supine and standing blood pressure (vital signs), clinical study", "type": "in vivo, humans", "experimental": "as §1"}, "sputum neutrophils": {"test_system": "sputum neutrophils", "experiment": "Sputum differential cell count: neutrophils", "type": "in vivo, humans", "conditions": "for median sputum neutrophils: all patients", "description": "(§3) A clinical study was undertaken in humans to test certain aspects of a preferred NO-donating budesonide derivative, TPI-1020, as compared to the corticosteroid, budesonide which was not modified with a NO-donating moiety. Specifically, the objectives of this study were to determine the safety, pharmacodynamic and pharmacokinetic activity of multiple doses of inhaled NO-donating budesonide derivatives compared to that of equimolar doses of inhaled budesonide in subjects with mild asthma who smoke. We chose patients with asthma who smoke since these patients had reported to have not only an increase in eNO but also an increase in neutrophils within their sputum (as described in COPD). While assessing the safety of these compounds in such patients we could thus explore the effects of the same in patients with increased sputum neutrophils.\nas §2, §1\nThe sample size was chosen to provide information about the primary study objective (safety) and with the power to detect a 20% difference in the decrease in sputum neutrophils with TPI-1020, versus that occurring with budesonide. There are no published studies in mild smokers with asthma that have described the variability in sputum neutrophils. However, based on the COPD publication by Gamble et al., almost all patients with COPD have increased sputum neutrophils (>20%). We calculated that if 13 subjects per group completed the study, a difference of 20% in neutrophils (%) between groups could be detected with a power of 80%."}, "blood lymphocytes": {"test_system": "blood lymphocytes", "experiment": "Blood lymphocytes", "type": "in vivo, humans", "conditions": "mean (SD)", "experimental": "as §1"}, "[2]": {"experiment": "Plasma pharmacokinetic profile after inhalation", "type": "in vivo, humans", "experimental": "as §1\nTPI-1020 was not detected in the plasma of treated subjects at all the time points that were assessed over an 8 hour period on days 1 and 14 and on day 22, approximately 12 hours after the last dose. The budesonide plasma phamacokinetic analysis was different in the TPI-1020 group when compared to the budesonide group (FIG. 6). The Cmax, Tmax, and AUC were, respectively in the TPI-1020 vs. the budesonide treated group. For the data presented in FIG. 6, plasma budesonide was measured over an 8 hour period in budesonide (400 mcg, n=10) and TPI-1020 (600 mcg, n=8) treated patients after the first dose (day 1, dotted line) and day 14 (solid line)."}, "[3]": {"design": "species or system humans", "conditions": "human, in vivo", "description": "as §3, §1\nThe total number of adverse events reported by patients receiving budesonide and TPI-1020 is graphically depicted in FIG. 1. More specifically, FIG. 1 depicts the total number of either treatment-related or physician-determined adverse events for each drug during the 21 day therapeutic period."}, "C-reactive protein (CRP)": {"test_system": "C-reactive protein (CRP)", "experiment": "Plasma CRP levels", "type": "in vivo, humans", "conditions": "for CRP (mg/L): mean (SD)", "experimental": "as §2, §1"}, "[4]": {"experiment": "Asthma control scoring system questionnaire (ACSS)", "type": "in vivo, humans", "conditions": "mean (SD)", "experimental": "as §1"}, "[5]": {"test_system": "HPA (hypothalamic-pituitary-adrenal) axis", "conditions": "in vivo", "excerpt": "(§4) This undesirable HPA axis suppression is typically measured by a reduction in urinary cortisol excretion.\n(§5) Safety parameters consisted of adverse events and serious adverse events, vital signs, asthma symptoms, laboratory determinations of CBC, urinalysis, regular blood biochemistry, plasma C-reactive protein (CRP), plasma and urinary free cortisol levels, spirometry and electrocardiograms (ECGs)."}, "[6]": {"test_system": "HPA (hypothalamic-pituitary-adrenal) axis", "conditions": "in vivo", "remark": "listed apart in the source", "excerpt": "as §4, §5"}, "[7]": {"experiment": "Use of daily rescue medication (salbutamol)", "type": "in vivo, humans", "conditions": "mean (SD)", "experimental": "as §2, §1"}, "[8]": {"experiment": "Peak flow measurements (PEF, miniwright meter)", "type": "in vivo, humans", "conditions": "mean (SD)", "experimental": "as §2, §1"}, "[9]": {"test_system": "exhaled nitric oxide (eNO)", "experiment": "Exhaled NO levels (chemiluminescence)", "type": "in vivo, humans", "conditions": "for eNO (ppb): mean (SD)", "experimental": "as §2, §1"}, "[10]": {"experiment": "Methacholine challenge test (PC20)", "type": "in vivo, humans", "conditions": "mean (SD)", "experimental": "as §2, §1"}}, "note": "Marks after values point to notes of the source that are not given here."}
{"smiles": "CCCC1O[C@@H]2C[C@H]3[C@@H]4CCC5=CC(=O)C=C[C@]5(C)[C@H]4[C@@H](O)C[C@]3(C)[C@]2(C(=O)COC(=O)c2ccc(CO[N+](=O)[O-])cc2)O1", "note": "(some centres unmarked) [TPI-1020, budesonide 21-(4′-nitrooxymethyl)benzoate]", "values": [{"measurement": "Blood eos (%)", "setting": "blood eosinophils; Baseline", "result": "2.8 (2.7) %"}, {"measurement": "Blood eos (%)", "setting": "blood eosinophils; Day 22", "result": "1.8 (1.7) %"}, {"measurement": "Sputum eos (%)", "setting": "sputum eosinophils; Baseline", "result": "8.7 (10.8) %"}, {"measurement": "Sputum eos (%)", "setting": "sputum eosinophils; Day 22", "result": "3.3 (4.0) %"}, {"measurement": "recruitment of neutrophils into the lungs", "setting": "neutrophils", "result": "inhibited the recruitment of neutrophils"}, {"measurement": "FEV1 (ITT, L)", "setting": "FEV1 spirometry; Baseline", "result": "3.0 (0.5) L"}, {"measurement": "FEV1 (PD, L)", "setting": "FEV1 spirometry; Baseline", "result": "3.0 (0.6) L"}, {"measurement": "FEV1 (PD, L)", "setting": "FEV1 spirometry; Day 1", "result": "2.8 (0.6) L"}, {"measurement": "FEV1 (PD, L)", "setting": "FEV1 spirometry; Day 14", "result": "3.0 (0.6) L"}, {"measurement": "FEV1 (PD, L)", "setting": "FEV1 spirometry; Day 15", "result": "2.8 (0.7) L"}, {"measurement": "FEV1 (ITT, L)", "setting": "FEV1 spirometry; Day 22", "result": "3.0 (0.5) L"}, {"measurement": "FEV1 (PD, L)", "setting": "FEV1 spirometry; Day 22", "result": "3.0 (0.6) L"}, {"measurement": "acute effects on FEV1 over an 8 hour period", "setting": "FEV1 spirometry; days 1 and 14, TPI-1020 600 mcg vs budesonide 400 mcg", "result": "no acute effects on FEV1 when compared to budesonide"}, {"measurement": "change in standing pulse pressure", "setting": "[1]; after 22 days, p=0.015 between groups", "result": "−9.33", "unit": "mmHg"}, {"measurement": "decrease in standing diastolic blood pressure", "setting": "[1]; day 22 versus baseline", "result": 4.0, "unit": "%"}, {"measurement": "decrease in standing systolic blood pressure", "setting": "[1]; day 22 versus baseline", "result": 9.9, "unit": "%"}, {"measurement": "decrease in supine diastolic blood pressure", "setting": "[1]; day 22 versus baseline", "result": 3.4, "unit": "%"}, {"measurement": "decrease in supine systolic blood pressure", "setting": "[1]; day 22 versus baseline", "result": 3.2, "unit": "%"}, {"measurement": "effect on blood pressure values", "setting": "[1]; over the 22 day period, vs baseline", "result": "decreased blood pressure values"}, {"measurement": "mean sputum neutrophils", "setting": "sputum neutrophils; after 22 days, post hoc, patients with baseline sputum neutrophils <20% (normal)", "result": 17.9, "unit": "%"}, {"measurement": "mean sputum neutrophils", "setting": "sputum neutrophils; after 22 days, post hoc, patients with baseline sputum neutrophils >20%", "result": 33.4, "unit": "%"}, {"measurement": "mean sputum neutrophils", "setting": "sputum neutrophils; baseline, post hoc, patients with baseline sputum neutrophils <20% (normal)", "result": 11.5, "unit": "%"}, {"measurement": "mean sputum neutrophils", "setting": "sputum neutrophils; baseline, post hoc, patients with baseline sputum neutrophils >20%", "result": 50.8, "unit": "%"}, {"measurement": "median sputum neutrophils", "setting": "sputum neutrophils; day 0 prior to therapy", "result": 29.8, "unit": "%"}, {"measurement": "decrease in median sputum neutrophils", "setting": "sputum neutrophils; day 0 to day 22, all patients", "result": 32.6, "unit": "%"}, {"measurement": "median sputum neutrophils", "setting": "sputum neutrophils; day 22 (end of therapy)", "result": 20.1, "unit": "%"}, {"measurement": "decrease in mean sputum neutrophils", "setting": "sputum neutrophils; over 22 days, post hoc, patients with baseline sputum neutrophils >20%", "result": 35.8, "unit": "%"}, {"measurement": "patients in whom sputum neutrophils decreased to <30%", "setting": "sputum neutrophils; patients with high neutrophils at baseline", "result": 57.1, "unit": "%"}, {"measurement": "Blood lymphocytes (%)", "setting": "blood lymphocytes; Baseline", "result": "20.3 (16.6) %"}, {"measurement": "Blood lymphocytes (%)", "setting": "blood lymphocytes; Day 22", "result": "18.4 (15.4)* %"}, {"measurement": "TPI-1020 in plasma", "setting": "[2]; all time points over 8 hours on days 1 and 14, and day 22 about 12 hours after last dose", "result": "not detected"}, {"measurement": "AUC of plasma budesonide relative to equimolar budesonide group", "setting": "[2]; inhaled, equimolar doses", "result": "significantly lower AUC values"}, {"measurement": "Cmax of plasma budesonide relative to equimolar budesonide group", "setting": "[2]; inhaled, equimolar doses", "result": "more than five fold lower"}, {"measurement": "AUC of plasma budesonide relative to equimolar budesonide group", "setting": "[2]; inhaled, equimolar doses, listed as NO-donating budesonide derivative", "result": "more than five fold lower"}, {"measurement": "drug-related adverse events", "setting": "[3]", "result": 6}, {"measurement": "number of subjects that reported adverse events", "setting": "[3]", "result": 6}, {"measurement": "total treatment-emergent adverse events", "setting": "[3]", "result": 13}, {"measurement": "patients in whom CRP decreased", "setting": "C-reactive protein (CRP); 22 days of therapy compared to baseline", "result": 69.2, "unit": "%"}, {"measurement": "CRP (mg/L)", "setting": "C-reactive protein (CRP); Baseline", "result": "3.6 (3.9) mg/L"}, {"measurement": "CRP (mg/L)", "setting": "C-reactive protein (CRP); Day 22", "result": "3.0 (4.5) mg/L"}, {"measurement": "decrease in plasma CRP", "setting": "C-reactive protein (CRP); day 15 versus baseline, p=0.03 between groups", "result": 1.4, "unit": "mg/L"}, {"measurement": "ACSS", "setting": "[4]; Baseline", "result": "65 (11.1)"}, {"measurement": "ACSS", "setting": "[4]; Day 22", "result": "71.5 (16.3)"}, {"measurement": "morning plasma cortisol level", "setting": "[5]", "result": 13.7, "unit": "µg/dL"}, {"measurement": "effect on 24-hour urinary free cortisol", "setting": "[6]", "result": "statistically insignificant effects"}, {"measurement": "Doses of Rescue Rx", "setting": "[7]; Baseline", "result": "14.7 (11)"}, {"measurement": "Rescue free days (%)", "setting": "[7]; Baseline", "result": "39 (39) %"}, {"measurement": "Doses of Rescue Rx", "setting": "[7]; Day 22", "result": "3.9 (4.5)"}, {"measurement": "Rescue free days (%)", "setting": "[7]; Day 22", "result": "63.5 (33) %"}, {"measurement": "PEF (AM, L/min)", "setting": "[8]; Baseline", "result": "365.1 (93) L/min"}, {"measurement": "PEF (AM, L/min)", "setting": "[8]; Day 22", "result": "375.3 (97) L/min"}, {"measurement": "eNO (ppb)", "setting": "[9]; Baseline", "result": "29 (27) ppb"}, {"measurement": "eNO (ppb)", "setting": "[9]; Day 22", "result": "16.9 (14) ppb"}, {"measurement": "decrease in eNO", "setting": "[9]; equimolar doses, baseline to day 22", "result": 12.1, "unit": "ppb"}, {"measurement": "PC20 (mg/ml)", "setting": "[10]; Baseline", "result": "3.5 (5.7) mg/ml"}, {"measurement": "PC20 (mg/ml)", "setting": "[10]; Day 22", "result": "4.0 (8.9) mg/ml"}]}
